Data as given in ChEMBL document CHEMBL3885881, “DrugMatrix”.

Species: Rattus norvegicus
Test: DrugMatrix - Regimen: Daily Repeat
Assay type: toxicity, organism-based, Sprague-Dawley
Set-up: regimen Daily Repeat, gender Male, age 6-8 weeks
Conditions: in vivo, po, route oral GAVAGE, vehicle 100 % WATER; for ABSOLUTE BASOPHIL / ABSOLUTE EOSINOPHIL / ABSOLUTE LYMPHOCYTE / ABSOLUTE MONOCYTE / ABSOLUTE SEGMENTED NEUTROPHIL / BASOPHIL / EOSINOPHIL / ERYTHROCYTE COUNT / HEMATOCRIT / HEMOGLOBIN / LEUKOCYTE COUNT / LYMPHOCYTE / MEAN CORPUSCULAR HEMOGLOBIN / MEAN CORPUSCULAR HEMOGLOBIN CONCENTRATION / MEAN CORPUSCULAR VOLUME / MONOCYTE / NEUTROPHIL / NUCLEATED RED BLOOD CELLS / PLATELET COUNT: tissue Blood; for ALANINE AMINOTRANSFERASE / ALBUMIN / ALKALINE PHOSPHATASE / ASPARTATE AMINOTRANSFERASE / BLOOD UREA NITROGEN / CARBON DIOXIDE / CHLORIDE / CHOLESTEROL / CREATINE PHOSPHOKINASE / CREATININE / GLUCOSE / LACTATE DEHYDROGENASE / LIPASE / PHOSPHORUS / POTASSIUM / SODIUM / TOTAL BILIRUBIN / TOTAL PROTEIN / URIC ACID: tissue Plasma
[1] = 0 mg/kg, 72 h, dose level Control, time 3 day
[2] = 0 mg/kg, 120 h, dose level Control, time 5 day
[3] = 6 mg/kg, 72 h, dose level Low, time 3 day

With `CN1CCN(C(=O)OC2c3nccnc3C(=O)N2c2ccc(Cl)cn2)CC1` (centres undefined) [ZOPICLONE] the “ABSOLUTE BASOPHIL” value [1] was 0 CELLS/uL, the “ABSOLUTE EOSINOPHIL” value [1] was 86.33 CELLS/uL and the “ABSOLUTE LYMPHOCYTE” value [1] was 12090.17 CELLS/uL. The “ABSOLUTE MONOCYTE” value [1] was 166.67 CELLS/uL, the “ABSOLUTE SEGMENTED NEUTROPHIL” value [1] was 1090.17 CELLS/uL and the BASOPHIL [1] was 0%. For the same compound, the EOSINOPHIL [1] was 0.67%, the “ERYTHROCYTE COUNT” value [1] was 5.57 x10E6/uL and the HEMATOCRIT [1] was 35.33%. The HEMOGLOBIN [1] was 13.83 G/DL, the “LEUKOCYTE COUNT” value [1] was 13.43 x10E3/uL and the LYMPHOCYTE [1] was 89.83%. For the same compound, the “MEAN CORPUSCULAR HEMOGLOBIN” value [1] was 24.88 pg, the “MEAN CORPUSCULAR HEMOGLOBIN CONCENTRATION” value [1] was 39.15 G/DL and the “MEAN CORPUSCULAR VOLUME” value [1] was 63.52 fL. The MONOCYTE [1] was 1.17%, the NEUTROPHIL [1] was 8.33% and the “NUCLEATED RED BLOOD CELLS” value [1] was 0 /100WBC. The “PLATELET COUNT” value [1] was 1181.33 x10E3/uL, the “ALANINE AMINOTRANSFERASE” value [1] was 48.33 u/L and the ALBUMIN [1] was 4.1 G/DL. For the same compound, the “ALKALINE PHOSPHATASE” value [1] was 395 u/L, the “ASPARTATE AMINOTRANSFERASE” value [1] was 81.83 u/L and the “BLOOD UREA NITROGEN” value [1] was 15.83 mg/dL. For the same compound, the “CARBON DIOXIDE” value [1] was 24.17 mmol/L, the CHLORIDE [1] was 103.83 MEQ/L and the CHOLESTEROL [1] was 63.67 mg/dL. The “CREATINE PHOSPHOKINASE” value [1] was 372.83 u/L, the CREATININE [1] was 0.18 mg/dL and the GLUCOSE [1] was 173.83 mg/dL. The “LACTATE DEHYDROGENASE” value [1] was 188.33 u/L, the LIPASE [1] was 9.5 u/L and the PHOSPHORUS [1] was 11.95 mg/dL. The POTASSIUM [1] was 5.99 MEQ/L, the SODIUM [1] was 144.43 MEQ/L and the “TOTAL BILIRUBIN” value [1] was 0.15 mg/dL. The “TOTAL PROTEIN” value [1] was 5.95 G/DL, the “URIC ACID” value [1] was 1.82 mg/dL and the “ABSOLUTE BASOPHIL” value [2] was 0 CELLS/uL. For the same compound, the “ABSOLUTE EOSINOPHIL” value [2] was 26.67 CELLS/uL, the “ABSOLUTE LYMPHOCYTE” value [2] was 7583.83 CELLS/uL and the “ABSOLUTE MONOCYTE” value [2] was 131.33 CELLS/uL. For the same compound, the “ABSOLUTE SEGMENTED NEUTROPHIL” value [2] was 674.83 CELLS/uL, the BASOPHIL [2] was 0% and the EOSINOPHIL [2] was 0.33%. The “ERYTHROCYTE COUNT” value [2] was 5.78 x10E6/uL, the HEMATOCRIT [2] was 36.48% and the HEMOGLOBIN [2] was 14.03 G/DL. The “LEUKOCYTE COUNT” value [2] was 8.42 x10E3/uL, the LYMPHOCYTE [2] was 89.83% and the “MEAN CORPUSCULAR HEMOGLOBIN” value [2] was 24.3 pg. For the same compound, the “MEAN CORPUSCULAR HEMOGLOBIN CONCENTRATION” value [2] was 38.52 G/DL, the “MEAN CORPUSCULAR VOLUME” value [2] was 63.15 fL and the MONOCYTE [2] was 1.67%. The NEUTROPHIL [2] was 8.17%, the “NUCLEATED RED BLOOD CELLS” value [2] was 0 /100WBC and the “PLATELET COUNT” value [2] was 1186.67 x10E3/uL. For the same compound, the “ALANINE AMINOTRANSFERASE” value [2] was 50.17 u/L, the ALBUMIN [2] was 4.07 G/DL and the “ALKALINE PHOSPHATASE” value [2] was 367.5 u/L. For the same compound, the “ASPARTATE AMINOTRANSFERASE” value [2] was 81.67 u/L, the “BLOOD UREA NITROGEN” value [2] was 16.17 mg/dL and the “CARBON DIOXIDE” value [2] was 32.33 mmol/L. The CHLORIDE [2] was 101.5 MEQ/L, the CHOLESTEROL [2] was 65.33 mg/dL and the “CREATINE PHOSPHOKINASE” value [2] was 255.33 u/L. The CREATININE [2] was 0.17 mg/dL, the GLUCOSE [2] was 139.33 mg/dL and the “LACTATE DEHYDROGENASE” value [2] was 95 u/L. The LIPASE [2] was 10.5 u/L, the PHOSPHORUS [2] was 10.38 mg/dL and the POTASSIUM [2] was 6.11 MEQ/L. For the same compound, the SODIUM [2] was 145.55 MEQ/L, the “TOTAL BILIRUBIN” value [2] was 0.17 mg/dL and the “TOTAL PROTEIN” value [2] was 5.98 G/DL. For the same compound, the “URIC ACID” value [2] was 0.93 mg/dL, the “ABSOLUTE BASOPHIL” value [3] was 0 CELLS/uL and the “ABSOLUTE EOSINOPHIL” value [3] was 0 CELLS/uL. The “ABSOLUTE LYMPHOCYTE” value [3] was 14318.33 CELLS/uL, the “ABSOLUTE MONOCYTE” value [3] was 218 CELLS/uL and the “ABSOLUTE SEGMENTED NEUTROPHIL” value [3] was 1497 CELLS/uL. The BASOPHIL [3] was 0%, the EOSINOPHIL [3] was 0% and the “ERYTHROCYTE COUNT” value [3] was 5.61 x10E6/uL. The HEMATOCRIT [3] was 35.47%, the HEMOGLOBIN [3] was 13.67 G/DL and the “LEUKOCYTE COUNT” value [3] was 16.03 x10E3/uL. For the same compound, the LYMPHOCYTE [3] was 89.33%, the “MEAN CORPUSCULAR HEMOGLOBIN” value [3] was 24.37 pg and the “MEAN CORPUSCULAR HEMOGLOBIN CONCENTRATION” value [3] was 38.53 G/DL. For the same compound, the “MEAN CORPUSCULAR VOLUME” value [3] was 63.23 fL, the MONOCYTE [3] was 1.33% and the NEUTROPHIL [3] was 9.33%. The “NUCLEATED RED BLOOD CELLS” value [3] was 0 /100WBC, the “PLATELET COUNT” value [3] was 1106.33 x10E3/uL and the “ALANINE AMINOTRANSFERASE” value [3] was 43.67 u/L. For the same compound, the ALBUMIN [3] was 3.9 G/DL, the “ALKALINE PHOSPHATASE” value [3] was 402 u/L and the “ASPARTATE AMINOTRANSFERASE” value [3] was 70.33 u/L. The “BLOOD UREA NITROGEN” value [3] was 14.33 mg/dL, the “CARBON DIOXIDE” value [3] was 25.33 mmol/L and the CHLORIDE [3] was 102 MEQ/L. The CHOLESTEROL [3] was 72.33 mg/dL, the “CREATINE PHOSPHOKINASE” value [3] was 454.67 u/L and the CREATININE [3] was 0.15 mg/dL. For the same compound, the GLUCOSE [3] was 170.33 mg/dL, the “LACTATE DEHYDROGENASE” value [3] was 139 u/L and the LIPASE [3] was 9 u/L. For the same compound, the PHOSPHORUS [3] was 12.8 mg/dL, the POTASSIUM [3] was 6.03 MEQ/L and the SODIUM [3] was 142.73 MEQ/L. The “TOTAL BILIRUBIN” value [3] was 0.2 mg/dL, the “TOTAL PROTEIN” value [3] was 5.63 G/DL and the “URIC ACID” value [3] was 1.97 mg/dL.
